Assay results reported in patent US20080146987A1, “TREATMENT OF A SKIN CONDITION USING A PIPERINE-BASED COMPOSITION IN CONJUNCTION WITH IRRADIATION” (OREGON HEALTH & SCIENCE UNIVERSITY, priority 2006, published 2008).

Test system: HRA.HRII-c/+/Skh hairless pigmented mice
Experiment: visual pigmentation score after topical compounds with or without UVB, 13-week protocols
Type: in vivo
Settings: HRA/Skh-II mice, four or more weeks
Protocol: Male and female inbred HRA.HRII-c/+/Skh hairless pigmented mice, age-matched (8-16 weeks old), were used in the following in vivo experiments for evaluation of pigmentation induced by piperine and/or UVR.
In one experiment, the compounds used included piperine, THP, CHP, and RCHP, each prepared in DMSO at a 50 mg/ml concentration, and applied to the backs of mice (n=4) twice daily on weekdays for 13 weeks, as shown in FIG. 3. As shown, Group A received treatment with compounds only from week 1-13. Group B was treated with compound from week 1-13, with additional UVB irradiation from weeks 5-13. Group F received UVB alone (no topical treatment) for 9 weeks, corresponding to weeks 5-13. Groups C, D and E were treated as Group B from weeks 1-7. All treatments was suspended for 3 weeks (8-10) and re-started as topical treatment with compounds only (Group C), UVB only (Group D), or topical treatment with UVB (Group E) from weeks 11-13.
Pigmentation was assessed visually by an investigator blinded to the treatment that the animals had received using the following scoring system: 0—no pigmentation; 1—first signs of pigmentation (spots); 2—light brown; 3—medium brown; 4—dark brown; 5—black. Scores obtained at the end of each week (Friday) are shown in FIG. 4 (piperine noted as PIP). […]

O=C(CCCCc1ccc2c(c1)OCO2)NC1CCCCC1 [RCHP, 5-(3,4-methylenedioxyphenyl)-2,4-pentanoylcyclohexylamine]
skin pigmentation in vivo after continuous topical application: stimulate the development of even skin pigmentation
